Results published in patent US20100004259A1, “Tartrate Salt of (7S)-7-[(5-Fluoro-2-Methyl-Benzyl)oxy]-2-[(2R)-2-Methylpiperazin-1-YL]-6,7-Dihydro-5H-Cyclopenta[B]Pyridine” (Pfizer Inc., priority 2006, published 2010).

What was measured:
[1] = hygroscopicity by dynamic vapor sorption; format: physicochemical
Method: Hygroscopicity was assessed using a dynamic vapor sorption technique in which an accurately weighed sample is subjected to progressively changing water vapor pressure while simultaneously recording the weight change. The experiment was conducted isothermally at 25° C.
Less than 0.5% increase in weight was detected at 90±2% relative humidity during an isothermal (25.1±0.1° C.) moisture sorption analysis conducted from approximately 1% to 90% (±2%) humidity. […] The amount of water vapor sorption may vary depending on the particle size and surface area of sample.

5HT2a [2] = molecular target: T1, 5HT2a (Homo sapiens, UniProt P28223); test: functional activity at the 5-HT2a receptor
T1 sequence (P28223 whole entry): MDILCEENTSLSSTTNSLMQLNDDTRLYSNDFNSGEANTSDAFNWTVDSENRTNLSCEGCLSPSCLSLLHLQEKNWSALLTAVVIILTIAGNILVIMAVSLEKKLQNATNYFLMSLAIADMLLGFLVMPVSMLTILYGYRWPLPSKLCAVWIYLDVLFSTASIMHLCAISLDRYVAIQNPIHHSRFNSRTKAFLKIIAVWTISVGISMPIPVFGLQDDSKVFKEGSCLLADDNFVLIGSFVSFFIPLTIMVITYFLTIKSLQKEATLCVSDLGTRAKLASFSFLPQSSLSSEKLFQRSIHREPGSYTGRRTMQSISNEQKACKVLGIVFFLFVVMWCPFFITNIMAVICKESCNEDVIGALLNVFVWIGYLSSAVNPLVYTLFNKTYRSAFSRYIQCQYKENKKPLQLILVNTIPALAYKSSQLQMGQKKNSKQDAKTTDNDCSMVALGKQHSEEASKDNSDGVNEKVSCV
Source text: (§1) Formula I of the present invention is functionally selective for 5-HT2c against 5-HT2a and 5-HT2b, by virtue of its much greater agonistic potency (lower EC50) for 5-HT2c than that observed for 5-HT2a and/or 5-HT2b or its lack of agonistic activity at 5-HT2a and/or 5-HT2b.

5HT2c [3] = molecular target: T2, 5HT2c (Homo sapiens, UniProt P28335); test: receptor binding assay at human 5HT2c receptor; details: an amorphous salt of Formula I was tested
T2 sequence (P28335 33-458): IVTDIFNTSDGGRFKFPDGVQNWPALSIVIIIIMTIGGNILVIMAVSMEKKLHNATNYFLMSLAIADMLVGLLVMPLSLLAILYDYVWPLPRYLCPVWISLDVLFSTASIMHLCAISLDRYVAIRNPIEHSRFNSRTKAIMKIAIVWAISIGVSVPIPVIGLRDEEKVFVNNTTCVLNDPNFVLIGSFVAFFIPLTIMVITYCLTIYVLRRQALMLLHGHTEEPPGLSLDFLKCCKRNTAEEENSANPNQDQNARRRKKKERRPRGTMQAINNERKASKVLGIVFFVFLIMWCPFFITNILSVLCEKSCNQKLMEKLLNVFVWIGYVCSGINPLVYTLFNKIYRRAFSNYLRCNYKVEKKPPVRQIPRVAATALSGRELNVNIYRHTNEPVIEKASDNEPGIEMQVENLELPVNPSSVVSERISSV
Method: (§2) An amorphous salt of Formula I was tested in accordance with the binding assay procedures at human receptors provided in U.S. application Ser. No. 11/395,327, and the following receptor binding data for the compound of Formula I was obtained: […]

5HT2b [4] = molecular target: T3, 5HT2b (Homo sapiens, UniProt P41595); test: functional activity at the 5-HT2b receptor
T3 sequence (P41595 whole entry): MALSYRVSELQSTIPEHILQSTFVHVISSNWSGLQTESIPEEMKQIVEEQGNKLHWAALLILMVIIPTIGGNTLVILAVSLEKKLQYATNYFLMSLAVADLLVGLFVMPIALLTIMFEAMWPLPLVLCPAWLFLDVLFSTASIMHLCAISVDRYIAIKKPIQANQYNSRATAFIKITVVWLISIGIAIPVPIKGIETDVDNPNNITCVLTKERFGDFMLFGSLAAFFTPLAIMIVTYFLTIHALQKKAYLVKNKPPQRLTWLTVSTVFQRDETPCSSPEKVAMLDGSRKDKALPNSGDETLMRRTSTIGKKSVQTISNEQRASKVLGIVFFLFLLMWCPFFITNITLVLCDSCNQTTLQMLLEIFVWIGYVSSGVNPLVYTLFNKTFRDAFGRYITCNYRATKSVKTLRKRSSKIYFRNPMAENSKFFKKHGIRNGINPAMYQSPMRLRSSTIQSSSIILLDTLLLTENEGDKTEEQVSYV
Source text: as §1

5HT2c [5] = molecular target: T2, 5HT2c; test: functional activity at the 5-HT2c receptor
Source text: as §1

5HT2b [6] = molecular target: T3, 5HT2b; test: receptor binding assay at human 5HT2b receptor; details: an amorphous salt of Formula I was tested
Method: as §2

5HT2a [7] = molecular target: T1, 5HT2a; test: receptor binding assay at human 5HT2a receptor; details: an amorphous salt of Formula I was tested
[8] = cited from earlier work
[9] = cited from earlier work; remark: listed apart in the source

Cc1ccc(F)cc1CO[C@H]1CCc2ccc(N3CCNC[C@H]3C)nc21.O=C(O)C(O)C(O)C(=O)O [(S)-7-(5-Fluoro-2-methyl-benzyloxy)-2-((R)-2-methyl-piperazin-1-yl)-6,7-dihydro-5H-[1]pyrindine L(+)-tartrate]
increase in weight (moisture sorption) ([1]; at 90±2% relative humidity, isothermal (25.1±0.1° C.) moisture sorption from approximately 1% to 90% (±2%) humidity): Less than 0.5% | hygroscopicity assessment ([1]; dynamic vapor sorption, isothermal at 25° C.): non-hygroscopic

Cc1ccc(F)cc1CO[C@H]1CCc2ccc(N3CCNC[C@H]3C)nc21 [Formula I, (7S)-7-[(5-fluoro-2-methyl-benzyl)oxy]-2-[(2R)-2-methylpiperazin-1-yl]-6,7-dihydro-5H-cyclopenta[b]pyridine]
functional activity at the 5-HT2a receptor (5HT2a [2]): antagonist or weak partial agonist | Ki (5HT2c [3]): 1.5 nM | functional activity at the 5-HT2b receptor (5HT2b [4]): antagonist | functional activity at the 5-HT2c receptor (5HT2c [5]): potent, high affinity agonist | Ki (5HT2b [6]): 7.7 nM | Ki (5HT2a [7]): 4.5 nM

O=C1Cc2cc(CCN3CCN(c4nsc5ccccc45)CC3)c(Cl)cc2N1 [Ziprasidone, 5-[2-[4-(1,2-benzisothiazol-3-yl)piperazin-1-yl]ethyl]-6-chloroindolin-2-one]
protein binding [8]: extensive | half-life ([9]; in vivo): 6 to 7 h | oral bioavailability ([9]; taken with food): approximately 60%
